Patent US10167262B2, “Herbicidal substituted 3-arylpyrazoles” (FMC CORPORATION, priority 2014, dated 2019)

What was measured:
Type in all cases: in vivo
[1] = test system: soybean (Glycine max); assay: Test E pre-/postemergence greenhouse test, plant response rating 0-100; settings: scale 0 to 100; for plant injury at 31 g/ha / plant injury at 62 g/ha / plant injury at 125 g/ha / plant injury at 250 g/ha / plant injury at 500 g/ha: Glycine max, post-emergence, Postemergence; for Soybean plant response rating: Preemergence
Summary of the method: (§1)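 Pre- and postemergence sprays, vehicle non-phytotoxic solvent containing surfactant; postemergence plants 2–18 cm tall at the 1–4-leaf stage. Scored against controls after 14 to 21 days in a greenhouse, 0 being no effect and 100 complete control.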

[2] = test system: sandbur (southern sandbur, Cenchrus echinatus); assay: as above; settings: scale 0 to 100; for pest or weed control at 31 g/ha / pest or weed control at 62 g/ha / pest or weed control at 125 g/ha / pest or weed control at 250 g/ha / pest or weed control at 500 g/ha: Cenchrus echinatus, post-emergence, Postemergence; for Sandbur plant response rating: Preemergence
Summary of the method: as §1

[3] = test system: barnyardgrass (Echinochloa crus-galli); assay: as above; settings: scale 0 to 100; for pest or weed control at 31 g/ha / pest or weed control at 62 g/ha / pest or weed control at 125 g/ha / pest or weed control at 250 g/ha / pest or weed control at 500 g/ha: Echinochloa crus-galli, post-emergence, Postemergence; for Barnyardgrass plant response rating: Preemergence
Summary of the method: as §1

[4] = test system: oilseed rape (Brassica napus); assay: Test C pre-/postemergence greenhouse test, plant response rating 0-100
Summary of the method: (§2)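 Pre-emergence soil and post-emergence foliar sprays were applied simultaneously to seeded loam–sand pots and to 1–4-leaf plants in peat medium; greenhouse holding lasted 13–15 days, then plants were scored visually from 0 (no effect) to 100 (complete control).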

[5] = test system: waterhemp (common waterhemp, Amaranthus rudis); assay: as above
Summary of the method: as §2

[6] = test system: barnyardgrass (Echinochloa crus-galli); assay: as above
Summary of the method: as §2

[7] = Postemergence, 250 g ai/ha, scale 0 to 100
[8] = Postemergence, 500 g ai/ha, scale 0 to 100
[9] = Postemergence, 125 g ai/ha, scale 0 to 100

SMILES: O=C(c1ccccc1)c1cn(CO)nc1-c1cc(Cl)cc(Cl)c1 [Compound 15, [3-(3,5-dichlorophenyl)-1-(hydroxymethyl)-1H-pyrazol-4-yl]phenylmethanone]
- plant injury at 31 g/ha ([1]; 31 g ai/ha): 0%
- plant injury at 62 g/ha ([1]; 62 g ai/ha): 0%
- plant injury at 125 g/ha ([1]; 125 g ai/ha): 0%
- plant injury at 250 g/ha ([1]; 250 g ai/ha): 0%
- plant injury at 500 g/ha ([1]; 500 g ai/ha): 0%
- Soybean plant response rating ([1]; 31 g ai/ha): 0
- Soybean plant response rating ([1]; 62 g ai/ha): 0
- Soybean plant response rating ([1]; 125 g ai/ha): 0
- Soybean plant response rating ([1]; 250 g ai/ha): 0
- Soybean plant response rating ([1]; 500 g ai/ha): 0
- pest or weed control at 31 g/ha ([2]; 31 g ai/ha): 0%
- pest or weed control at 62 g/ha ([2]; 62 g ai/ha): 0%
- pest or weed control at 125 g/ha ([2]; 125 g ai/ha): 0%
- pest or weed control at 250 g/ha ([2]; 250 g ai/ha): 0%
- pest or weed control at 500 g/ha ([2]; 500 g ai/ha): 0%
- Sandbur plant response rating ([2]; 31 g ai/ha): 0
- Sandbur plant response rating ([2]; 62 g ai/ha): 30
- Sandbur plant response rating ([2]; 125 g ai/ha): 50
- Sandbur plant response rating ([2]; 250 g ai/ha): 40
- Sandbur plant response rating ([2]; 500 g ai/ha): 35
- pest or weed control at 31 g/ha ([3]; 31 g ai/ha): 0%
- pest or weed control at 62 g/ha ([3]; 62 g ai/ha): 0%
- pest or weed control at 125 g/ha ([3]; 125 g ai/ha): 0%
- pest or weed control at 250 g/ha ([3]; 250 g ai/ha): 0%
- pest or weed control at 500 g/ha ([3]; 500 g ai/ha): 0%
- Barnyardgrass plant response rating ([3]; 31 g ai/ha): 0
- Barnyardgrass plant response rating ([3]; 62 g ai/ha): 0
- Barnyardgrass plant response rating ([3]; 125 g ai/ha): 0
- Barnyardgrass plant response rating ([3]; 250 g ai/ha): 0
- Barnyardgrass plant response rating ([3]; 500 g ai/ha): 0
- Plant response rating (0 to 100), Oilseed Rape ([4]; Postemergence, 62 g ai/ha): 60
- Plant response rating (0 to 100), Oilseed Rape ([4]; Postemergence, 125 g ai/ha): 90
- Plant response rating, Oilseed Rape [4, 7]: 90
- Plant response rating, Oilseed Rape [4, 8]: 90
- Plant response rating, Oilseed Rape ([4]; Preemergence, 31 g ai/ha): 0
- Plant response rating, Oilseed Rape ([4]; Preemergence, 62 g ai/ha): 50
- Plant response rating, Oilseed Rape ([4]; Preemergence, 125 g ai/ha): 50
- Plant response rating, Oilseed Rape ([4]; Preemergence, 250 g ai/ha): 80
- Plant response rating (0 to 100), Waterhemp ([5]; Postemergence, 62 g ai/ha): 65
- Plant response rating (0 to 100), Waterhemp ([5]; Postemergence, 125 g ai/ha): 95
- Plant response rating, Waterhemp [5, 7]: 100
- Plant response rating, Waterhemp [5, 8]: 100
- Plant response rating, Waterhemp ([5]; Preemergence, 62 g ai/ha): 100
- Plant response rating, Waterhemp ([5]; Preemergence, 125 g ai/ha): 100
- Plant response rating, Waterhemp ([5]; Preemergence, 250 g ai/ha): 100
- Plant response rating (0 to 100), Barnyardgrass ([6]; Postemergence, 62 g ai/ha): 0
- Plant response rating, Barnyardgrass [6, 9]: 0
- Plant response rating, Barnyardgrass [6, 7]: 0
- Plant response rating, Barnyardgrass [6, 8]: 0
- Plant response rating, Barnyardgrass ([6]; Preemergence, 31 g ai/ha): 0
- Plant response rating, Barnyardgrass ([6]; Preemergence, 62 g ai/ha): 0
- Plant response rating, Barnyardgrass ([6]; Preemergence, 125 g ai/ha): 0
- Plant response rating, Barnyardgrass ([6]; Preemergence, 250 g ai/ha): 0

SMILES: COCC(=O)n1cc(C(=O)c2ccccc2)c(-c2cc(Cl)cc(Cl)c2)n1 [Compound 16, 1-[4-benzoyl-3-(3,5-dichlorophenyl)-1H-pyrazol-1-yl]-2-methoxyethanone]
- plant injury at 31 g/ha ([1]; 31 g ai/ha): 0%
- plant injury at 62 g/ha ([1]; 62 g ai/ha): 0%
- plant injury at 125 g/ha ([1]; 125 g ai/ha): 0%
- plant injury at 250 g/ha ([1]; 250 g ai/ha): 0%
- plant injury at 500 g/ha ([1]; 500 g ai/ha): 0%
- Soybean plant response rating ([1]; 31 g ai/ha): 0
- Soybean plant response rating ([1]; 62 g ai/ha): 0
- Soybean plant response rating ([1]; 125 g ai/ha): 0
- Soybean plant response rating ([1]; 250 g ai/ha): 0
- Soybean plant response rating ([1]; 500 g ai/ha): 0
- pest or weed control at 31 g/ha ([2]; 31 g ai/ha): 0%
- pest or weed control at 62 g/ha ([2]; 62 g ai/ha): 0%
- pest or weed control at 125 g/ha ([2]; 125 g ai/ha): 0%
- pest or weed control at 250 g/ha ([2]; 250 g ai/ha): 0%
- pest or weed control at 500 g/ha ([2]; 500 g ai/ha): 0%
- Sandbur plant response rating ([2]; 31 g ai/ha): 0
- Sandbur plant response rating ([2]; 62 g ai/ha): 0
- Sandbur plant response rating ([2]; 125 g ai/ha): 0
- Sandbur plant response rating ([2]; 250 g ai/ha): 0
- Sandbur plant response rating ([2]; 500 g ai/ha): 0
- pest or weed control at 31 g/ha ([3]; 31 g ai/ha): 0%
- pest or weed control at 62 g/ha ([3]; 62 g ai/ha): 0%
- pest or weed control at 125 g/ha ([3]; 125 g ai/ha): 0%
- pest or weed control at 250 g/ha ([3]; 250 g ai/ha): 0%
- pest or weed control at 500 g/ha ([3]; 500 g ai/ha): 0%
- Barnyardgrass plant response rating ([3]; 31 g ai/ha): 0
- Barnyardgrass plant response rating ([3]; 62 g ai/ha): 0
- Barnyardgrass plant response rating ([3]; 125 g ai/ha): 0
- Barnyardgrass plant response rating ([3]; 250 g ai/ha): 0
- Barnyardgrass plant response rating ([3]; 500 g ai/ha): 0
- Plant response rating (0 to 100), Oilseed Rape ([4]; Postemergence, 62 g ai/ha): 50
- Plant response rating (0 to 100), Oilseed Rape ([4]; Postemergence, 125 g ai/ha): 60
- Plant response rating, Oilseed Rape [4, 7]: 90
- Plant response rating, Oilseed Rape [4, 8]: 90
- Plant response rating, Oilseed Rape ([4]; Preemergence, 62 g ai/ha): 0
- Plant response rating, Oilseed Rape ([4]; Preemergence, 125 g ai/ha): 50
- Plant response rating, Oilseed Rape ([4]; Preemergence, 250 g ai/ha): 100
- Plant response rating, Oilseed Rape ([4]; Preemergence, 500 g ai/ha): 100
- Plant response rating (0 to 100), Waterhemp ([5]; Postemergence, 62 g ai/ha): 90
- Plant response rating (0 to 100), Waterhemp ([5]; Postemergence, 125 g ai/ha): 95
- Plant response rating, Waterhemp [5, 7]: 98
- Plant response rating, Waterhemp [5, 8]: 100
- Plant response rating, Waterhemp ([5]; Preemergence, 62 g ai/ha): 100
- Plant response rating, Waterhemp ([5]; Preemergence, 125 g ai/ha): 100
- Plant response rating, Waterhemp ([5]; Preemergence, 250 g ai/ha): 100
- Plant response rating, Waterhemp ([5]; Preemergence, 500 g ai/ha): 100
- Plant response rating (0 to 100), Barnyardgrass ([6]; Postemergence, 62 g ai/ha): 0
- Plant response rating, Barnyardgrass [6, 9]: 0
- Plant response rating, Barnyardgrass [6, 7]: 0
- Plant response rating, Barnyardgrass [6, 8]: 0
- Plant response rating, Barnyardgrass ([6]; Preemergence, 62 g ai/ha): 0
- Plant response rating, Barnyardgrass ([6]; Preemergence, 125 g ai/ha): 0
- Plant response rating, Barnyardgrass ([6]; Preemergence, 250 g ai/ha): 0
- Plant response rating, Barnyardgrass ([6]; Preemergence, 500 g ai/ha): 0
